In US12180226B2, “Spirotricycle RIPK1 inhibitors and methods of uses thereof” (Merck Sharp & Dohme LLC, priority 2021, dated 2024):
Structures can show the parent of a compound that is named as a salt.

Each molecule was assayed against RIPK1 (recombinant GST-RIPK1 kinase domain, residues 1-327) (Homo sapiens (Human), UniProt Q13546) (assay: RIPK1-ADP-Glo Enzymatic Assay). Conditions: ADP-Glo; 25 nM GST-RIPK1, 300 μM ATP; assay lower limit ~25 nM; read-out: RIPK1 V0 Ec50.
Type: biochemical
Procedure, shortened: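 GST-tagged kinase domain (residues 1-327, Sf21-expressed), 25 nM, pre-incubated 30 min with compound at ambient temperature, then reacted 150 min with 300 μM ATP and 3 μM dephosphorylated MBP in HEPES pH 7.3 buffer. ADP measured by ADP-Glo luminescence; EC50 from ten-point titration (top 100000 nM), four-parameter fit.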

Chain of RIPK1 (recombinant GST-RIPK1 kinase domain, residues 1-327) (Q13546 1-327): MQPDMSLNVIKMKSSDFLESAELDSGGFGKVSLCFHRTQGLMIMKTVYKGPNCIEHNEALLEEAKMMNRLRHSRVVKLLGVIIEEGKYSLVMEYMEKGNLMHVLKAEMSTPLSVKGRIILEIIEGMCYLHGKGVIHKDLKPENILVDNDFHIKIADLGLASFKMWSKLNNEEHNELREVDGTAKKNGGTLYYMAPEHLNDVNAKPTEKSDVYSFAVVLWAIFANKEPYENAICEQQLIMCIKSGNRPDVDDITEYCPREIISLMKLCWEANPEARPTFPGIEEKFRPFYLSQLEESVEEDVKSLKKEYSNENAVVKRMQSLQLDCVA

| EC50 [nM] | Structure (SMILES) |
| --- | --- |
| 426 | Cc1onc(C(=O)N2CCC3(CC2)O[C@@H]2CC[C@@H](c4cc(F)cc(F)c4)N2C3=O)c1C [Example 6.57, (5′S,7a′R)-5′-(3,5-difluorophenyl)-1-(4,5-dimethyl-1,2-oxazole-3-carbonyl) tetrahydro-3′H-spiro [piperidine-4,2′-pyrrolo[2,1-b][1,3]-oxazol]-3′-one] |
| < 25 | N#Cc1ccc(N2CCC3(CC2)O[C@@H]2CC[C@@H](c4ccccc4)N2C3=O)c2ccnn12 [Example 13.19, 4-((5′S,7a′R)-3′-oxo-5′ phenyltetrahydro-3′H-spiro[piperidine-4,2′-pyrrolo[2,1-b]oxazol]-1-yl)pyrazolo[1,5-a]pyridine-7-carbonitrile, TFA salt] |
| < 25 | O=C(c1cc(F)ccc1F)N1CCC2(O[C@@H]3CC[C@@H](c4ccccc4)N3C2=O)C(F)C1 (stereo partly drawn) [Example 6.112] |
| 56.8 | Cc1cnc([C@@H]2CC[C@H]3OC4(CCN(C(=O)c5ccccc5)CC4)C(=O)N32)cn1 [Example 6.143, (5′S,7a′R)-1-(benzene-carbonyl)-5′-(5-meth-ylpyrazin-2-yl)tetra-hydro-3′H-spiro [piperidine-4,2′-pyrrolo[2,1-b][1,3]oxazol]-3′-one] |
| 171 | CC(C)(C)NC(=O)c1nc(N2CCC3(CC2)O[C@@H]2CC[C@@H](c4cc(F)cc(F)c4)N2C3=O)ncc1F [Example 7.15, N-tert-butyl-2-[(5′S,7a′R)-5′-(3,5-difluorophenyl)-3′-oxotetrahydro-1H,3′H-spiro[piperidine-4,2′-pyrrolo[2,1-b][1,3]oxazol]-1-yl]-5-fluoropyrimidine-4-carboxamide] |
| 841 | CC1CC2(CCN1C(=O)c1ccccc1)O[C@@H]1CC[C@@H](c3cc(F)cc(F)c3)N1C2=O (stereo partly drawn) [Example 6.105, (4R,5′S,7a′R)-1-(benzenecarbonyl)-5′-(3,5-difluorophenyl)-2-methyltetrahydro-3′H-spiro[piperidine-4,2′-pyrrolo[2,1-b] [1,3]oxazol]-3′-one] |
| 701 | Cc1cccc(CN2CCC3(CC2)O[C@@H]2CC[C@@H](c4cc(F)cc(F)c4)N2C3=O)c1 [Example 22.4, (5′S,7a′R)-5′-(3,5-difluorophenyl)-1-[(3-methylphenyl)methyl] tetrahydro-3′H-spiro[piperidine-4,2′-pyrrolo[2,1-b][1,3]oxazol]-3′-one] |
| 48.6 | Cc1ccnc(C(=O)N2CCC3(CC2)O[C@@H]2CC[C@@H](c4cc(F)cc(F)c4)N2C3=O)c1 [Example 6.102, (5′S,7a′R)-5′-(3,5-difluorophenyl)-1-(4-methylpyridine-2-carbonyl)tetrahydro-3′H-spiro[piperidine-4,2′-pyrrolo[2,1-b] [1,3]oxazol]-3′-one] |
| 24.7 | O=C(c1ccc2c(c1)CCO2)N1CCC2(CC1)O[C@@H]1CC[C@@H](c3cc(F)cc(F)c3)N1C2=O [Example 6.75, (5′S,7a′R)-5′-(3,5-difluorophenyl)-1-(2,3-dihydro-1-benzo-furan-5-carbonyl)-tetrahydro-3′H-spiro [piperidine-4,2′-pyrrolo[2,1-b][1,3]-oxazol]-3′-one] |
| 208 | O=C(c1cnnn1-c1cccnc1)N1CCC2(CC1)O[C@@H]1CC[C@@H](c3cc(F)cc(F)c3)N1C2=O [Example 6.30, (5′S,7a′R)-5′-(3,5-difluorophenyl)-1-[1-(pyridin-3-yl)-1H-1,2,3-triazole-5-car-bonyl]tetrahydro-3′H-spiro[piperidine-4,2′-pyrrolo[2,1-b][1,3]oxazol]-3′-one] |
| < 25 | O=C(c1cccc(F)c1)N1CCC2(CC1)O[C@@H]1CC[C@@H](c3cc(F)cc(F)c3)N1C2=O [Example 7.5, (5′S,7a′R)-5′-(3,5-difluorophenyl)-1-(3-fluorobenzene-1-carbonyl)tetrahydro-3′H-spiro[piperidine-4,2′-pyrrolo[2,1-b][1,3]oxazol]-3′-one] |
| 45.4 | COc1cnc(N2CCC3(CC2)O[C@@H]2CC[C@@H](c4ccccc4)N2C3=O)n2ncnc12 [Example 19.6, (5′S,7a′R)-1-(8-methoxy[1,2,4]triazolo [1,5-c]pyrimidin-5-yl)-5′-phenyltetrahydro-3′H-spiro[piperidine-4,2′-pyrrolo[2,1-b][1,3]oxazol]-3′-one] |
| < 25 | N#Cc1cc([C@@H]2CC[C@H]3OC4(CCN(c5ccnc6c(F)cnn56)CC4)C(=O)N32)ccc1F [Example 20.6, 2-fluoro-5-[(5′S,7a′R)-1-(3-fluoropyrazolo[1,5-a]pyrimidin-7-yl)-3′-oxotetrahydro-3′H-spiro[piperidine-4,2′-pyrrolo[2,1-b][1,3]oxazol]-5′-yl]benzonitrile] |
| 117 | Cc1nc(N2CCC3(CC2)O[C@@H]2CC[C@@H](c4ccccc4)N2C3=O)ncc1-c1ncn(C)n1 [Example 21.4, (5′S,7a′R)-1-[4-methyl-5-(1-methyl-1H-1,2,4-triazol-3-yl)pyrimidin-2-yl]-5′-phenyltetrahydro-3′H-spiro[piperidine-4,2′-pyrrolo[2,1-b][1,3]oxazol]-3′-one] |

Second part, the molecule before the results:

| Structure (SMILES) | EC50 [nM] |
| --- | --- |
| Cc1cc(F)c(C(=O)N2CCC3(CC2)O[C@@H]2CC[C@@H](c4cc(F)cc(F)c4)N2C3=O)cc1F [Example 5.6, (5′S,7a′R)-1-(2,5-difluoro-4-methylbenzene-1-carbonyl)-5′-(3,5-difluoro-phenyl)tetrahydro-3′H-spiro[piperidine-4,2′-pyrrolo[2,1-b][1,3]oxazol]-3′-one] | < 25 |
| N#Cc1cccc(C(=O)N2CCC3(CC2)O[C@@H]2CC[C@@H](c4cc(F)cc(F)c4)N2C3=O)c1 [Example 5.17, 3-((5′S,7a′R)-5′-(3,5-difluorophenyl)-3′-oxo-tetrahydro-3′H-spiro [piperidine-4,2′-pyrrolo-[2,1-b]oxazole]-1-carbon-yl)benzonitrile] | 25 |
| CC1CC2(CCN1c1ccnc3ccnn13)O[C@@H]1CC[C@@H](c3ccccc3)N1C2=O (stereo partly drawn) [Example 4.247, (4R,5′S,7a′R)-2-methyl-5′-phenyl-1-(pyrazolo[1,5-a]pyrimidin-7-yl)tetrahydro-3′H-spiro[piperidine-4,2′-pyrrolo[2,1-b] [1,3]oxazol]-3′-one] | 86.5 |
| N#Cc1ccc(F)c(C(=O)N2CCC3(CC2)O[C@@H]2CC[C@@H](c4cc(F)cc(F)c4)N2C3=O)c1 [Example 5.16, 3-((5′S,7a′R)-5′-(3,5-difluorophenyl)-3′-oxo-tetrahydro-3′H-spiro [piperidine-4,2′-pyrrolo-[2,1-b]oxazole]-1-carbon-yl)-4-fluorobenzonitrile] | < 25 |
| Cc1ccn(-c2cccc(N3CCC4(CC3)O[C@@H]3CC[C@@H](c5ccccc5)N3C4=O)n2)n1 [Example 4.263, (5′S,7a′R)-1-[6-(3-methyl-1H-pyrazol-1-yl)pyridin-2-yl]-5′-phenyltetrahydro-3′H-spiro[piperidine-4,2′-pyrrolo[2,1-b] [1,3]oxazol]-3′-one] | 26.2 |
| O=C1N2[C@@H](CC[C@H]2c2cc(F)cc(F)c2)OC12CCN(c1ncc(C3CC3)cn1)CC2 [Example 4.56, (5′S,7a′R)-1-(5-cyclopropylpyrimidin-2-yl)-5′-(3,5-difluorophenyl)tetrahydro-3′H-spiro[piperidine-4,2′-pyrrolo[2,1-b] [1,3]oxazol]-3′-one] | 565 |
| O=C1N2[C@@H](CC[C@H]2c2ccccc2)OC12CN(c1ccnc3ccnn13)C2 [Example 4.136, (5′S,7a′R)-5′-phenyl-1-(pyrazolo[1,5-a]pyrimidin-7-yl)tetrahydro-3′H-spiro[azetidine-3,2′-pyrrolo[2,1-b] [1,3]oxazol]-3′-one] | < 25 |
| CC1CN(c2cccc3ncnn23)CCC12O[C@@H]1CC[C@@H](c3ccccc3)N1C2=O (stereo partly drawn) [Example 4.243, (4R,5′S,7a′R)-3-methyl-5′-phenyl-1-([1,2,4]triazolo[1,5-a]pyridin-5-yl)tetrahydro-3′H-spiro[piperidine-4,2′-pyrrolo[2,1-b] [1,3]oxazol]-3′-one] | 26.3 |
| O=C1N2[C@@H](CC[C@H]2C2CCCCC2)OC12CCN(c1ccnc3c(F)cnn13)CC2 [Example 4.87, (5′S,7a′R)-5′-cyclohexyl-1-(3-fluoropyrazolo [1,5-a]pyrimidin-7-yl)tetrahydro-3′H-spiro[piperidine-4,2′-pyrrolo[2,1-b]oxazol]-3′-one, TFA salt] | < 25 |
| O=C1N2[C@@H](CC[C@H]2c2cncc(F)c2)OC12CCN(c1ccnc3c(F)cnn13)CC2 [Example 4.84, (5′S,7a′R)-1-(3-fluoropyrazolo[1,5-a]pyrimidin-7-yl)-5′-(5-fluoropyridin-3-yl)tetrahydro-3′H-spiro[piperidine-4,2′-pyrrolo[2,1-b]oxazol]-3′-one, TFA salt] | 29.3 |
| O=C1N2[C@@H](CC[C@H]2c2cc(F)cc(F)c2)OC12CCN(c1ncnc3c(F)cnn13)CC2 [Example 4.250, (5′S,7a′R)-5′-(3,5-difluorophenyl)-1-(8-fluoropyrazolo[1,5-a] [1,3,5]triazin-4-yl)tetrahydro-3′H-spiro[piperidine-4,2′-pyrrolo[2,1-b] [1,3]oxazol]-3′-one] | < 25 |
| Cc1c(Cl)ncnc1N1CCC2(CC1)O[C@@H]1CC[C@@H](c3ccccc3)N1C2=O [Example 4.30, (5′S,7a′R)-1-(6-chloro-5-methylpyrimidin-4-yl)-5′-phenyltetrahydro-3′H-spiro[piperidine-4,2′-pyrrolo[2,1-b] [1,3]oxazol]-3′-one] | < 25 |
| O=C1N2[C@@H](CC[C@H]2c2ccccc2)OC12CCN(c1cc(Cl)nc(C3CCCCC3)n1)CC2 [Example 4.34, (5′S,7a′R)-1-(6-chloro-2-cyclohexylpyrimidin-4-yl)-5′-phenyltetrahydro-3′H-spiro[piperidine-4,2′-pyrrolo[2,1-b] [1,3]oxazol]-3′-one] | 83 |
